Among the data in US5602125A, “Thienodiazepine derivatives as cholecystokinin and gastrin antagonists” (Merck, Sharp & Dohme, Ltd., priority 1992, dated 1997) are IC50 values, retold here.

Each structure is given as a SMILES string.

The target of assay [1] is T1, CCK-A (Rattus norvegicus, UniProt P30551).
T1 construct: ^125 I-CCK from rat pancreas (CCK-A); from tissue; host or cells: rat pancreas
T1 sequence (P30551 1-444): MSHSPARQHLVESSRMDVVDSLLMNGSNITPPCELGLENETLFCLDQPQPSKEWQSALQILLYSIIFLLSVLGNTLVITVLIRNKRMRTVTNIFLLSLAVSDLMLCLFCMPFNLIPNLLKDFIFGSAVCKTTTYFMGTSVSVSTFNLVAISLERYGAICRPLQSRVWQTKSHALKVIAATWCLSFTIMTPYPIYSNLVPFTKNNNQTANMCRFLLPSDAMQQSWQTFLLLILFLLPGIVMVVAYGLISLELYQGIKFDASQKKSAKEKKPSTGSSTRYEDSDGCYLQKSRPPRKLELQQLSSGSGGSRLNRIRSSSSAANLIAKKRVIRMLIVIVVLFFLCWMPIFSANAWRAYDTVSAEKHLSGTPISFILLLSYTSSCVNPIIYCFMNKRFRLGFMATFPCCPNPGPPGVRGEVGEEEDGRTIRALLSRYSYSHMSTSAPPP
Briefly: displacement of 125I-CCK from rat pancreas (CCK-A). The conditions noted are these: 50% displacement of specific 125I-CCK, read-out: CCK receptor binding IC50, 125I-CCK Pancreas. The procedure: (§1) The CCK-A and CCK-B antagonising activity of the compounds described herein was evaluated using the assays described in published European patent application no. 0514133. The method essentially involves determining the concentration of the test compound required to displace 50% of the specific ^125 I-CCK from rat pancreas (CCK-A) or guinea pig brain (CCK-B). The data in Table 1 were obtained for the compound of Example 1.
In general terms: Loss of bound radioactivity is the signal in a displacement assay; it reports binding, not function.

For assay [2], the target named is T2, CCK-B (Cavia porcellus, UniProt H0VZC5).
T2 construct: guinea pig brain (CCK-B); from tissue; host or cells: guinea pig brain
T2 sequence (H0VZC5 entry or part of it): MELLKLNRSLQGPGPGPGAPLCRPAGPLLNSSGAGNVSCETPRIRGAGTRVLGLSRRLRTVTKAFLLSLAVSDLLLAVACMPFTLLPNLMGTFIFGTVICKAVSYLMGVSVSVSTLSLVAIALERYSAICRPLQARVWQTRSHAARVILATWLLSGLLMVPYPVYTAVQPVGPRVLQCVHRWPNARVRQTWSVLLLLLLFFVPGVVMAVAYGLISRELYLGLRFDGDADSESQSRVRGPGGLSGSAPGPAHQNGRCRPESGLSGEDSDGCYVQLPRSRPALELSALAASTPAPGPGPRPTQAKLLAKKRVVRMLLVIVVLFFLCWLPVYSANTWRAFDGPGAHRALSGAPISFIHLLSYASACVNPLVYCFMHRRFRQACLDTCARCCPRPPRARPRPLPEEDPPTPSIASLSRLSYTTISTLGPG
Description: displacement of 125I-CCK from guinea pig brain (CCK-B). The assay is classed as binding. On the procedure: as §1

What is called IC50 is the concentration needed to halve the response being measured. Consider `Cc1cccc(NC(=O)NC2N=C(C3CCCCC3)c3ccsc3N(C)C2=O)c1` (racemic) [Example 1, N-[3(R,S)-5-cyclohexyl-2,3-dihydro-1-methyl-2-oxo-1H-1,4-thienodiazepine-3-yl]-N'-(3-methylphenyl) urea], for which the IC50 stood at 6.7 nM in assay [1] and 46 nM in assay [2].
